# Measured values reported in US12281098B2, “Five-membered-fused six-membered compound, preparation method, pharmaceutical composition and use” (HANGZHOU POLYMED BIOPHARMACEUTICALS, INC., priority 2021, dated 2025).
# Target: T1, IRAK4 kinase (Homo sapiens, UniProt Q9NWZ3)
# T1 construct: purchased Carna 09-145
# T1 sequence (Q9NWZ3 1-460): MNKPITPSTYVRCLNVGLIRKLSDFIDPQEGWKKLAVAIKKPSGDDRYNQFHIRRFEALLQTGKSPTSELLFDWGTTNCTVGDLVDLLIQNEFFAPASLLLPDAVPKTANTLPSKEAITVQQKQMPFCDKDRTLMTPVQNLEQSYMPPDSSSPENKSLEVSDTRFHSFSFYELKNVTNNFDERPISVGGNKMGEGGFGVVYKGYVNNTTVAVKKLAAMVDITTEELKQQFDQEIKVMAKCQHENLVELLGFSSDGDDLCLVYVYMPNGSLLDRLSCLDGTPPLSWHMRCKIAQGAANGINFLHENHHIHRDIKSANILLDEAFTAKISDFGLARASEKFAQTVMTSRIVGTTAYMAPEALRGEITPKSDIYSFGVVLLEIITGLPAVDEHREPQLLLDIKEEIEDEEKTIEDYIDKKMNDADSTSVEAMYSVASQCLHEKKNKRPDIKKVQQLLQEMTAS
# Experiment: Compound inhibition of IRAK4 kinase activity (fluorescence microfluidic mobility shift assay)
# Format: biochemical
# Conditions: Table 1; 10 μM ATP, 6 nM IRAK4 kinase
# Protocol: Based on the experimental method of fluorescence microfluidic mobility shift assay, the IC50 value of the compound for competitive binding of ATP to IRAK4 kinase was determined. The initial detection concentration of the compound was 10 μM, which was 4-fold serially diluted to 0.38 nM and assayed in duplicate. In this case, commercially available staurosporine was the standard control for the assay.
# 1) IRAK4 kinase was dissolved in kinase buffer (50 mM HEPES pH 7.5, 10 mM MgCl2, 2 mM DDT, and 0.01% Brij-35) at a final concentration of 6 nM.
# 2) The substrate peptide FAM-P8 and ATP were dissolved in the above kinase buffer, and the final concentrations of the substrate peptide FAM-P8 and ATP for IRAK4 were 3 μM and 10 μM, respectively.
# 3) Compound dilution: The compound was first diluted to 50 μM, and then 4-fold serially diluted with DMSO. In this case, the solution without compound and kinase served as the blank control, corresponding to the “minimum value” shown below; the solution without compound but containing kinase, adenosine 5′-triphosphate disodium salt hydrate, DMSO, and the buffer served as the positive control, corresponding to the “maximum value” shown below.
# 4) Kinase reaction and termination: 10 μL of the kinase buffer was added to a 384-well plate containing 5 μL of the compound to be tested, and the mixture was incubated at room temperature for 10 minutes; another 10 μL of buffer containing the substrate peptide and adenosine 5′-triphosphate disodium salt hydrate was added to the 384-well plate, and after incubation at 28° C. for 1 hour, 25 μL of termination solution (100 mM HEPES pH 7.5, 50 mM EDTA, 0.2% Coating Reagent #3, and 0.015% Brij-35) was added to each well to terminate the reaction.
# 5) Data reading: CaliperEZ Reader II instrument was used to read the conversion rate data. Setting conditions: downstream voltage as −500 V, upstream voltage as −2250 V, base pressure as −0.5 PSI, and screening pressure as −1.2 PSI.
# 6) Data calculation: the conversion rate data was copied from CaliperEZ Reader II, and the conversion rate was converted into inhibition rate data. The calculation formula is as follows: Inhibition percentage (%)=(maximum value−conversion rate)/(maximum value−minimum value)*100%
# IC50 values were fitted with XLFit excel add-in version 5.4.0.8.
row,IC50 [nM],Structure (SMILES)
1,≥ 10000,O=C(CCCN1Cc2cc(NC(=O)c3cccc(C(F)(F)F)n3)c(Br)cc2C1=O)NCCOCCOCCNc1cccc2c1C(=O)N(C1CCC(=O)NC1=O)C2=O (stereo not drawn) [III-1]
2,1000 to 10000,O=C1CCC(N2C(=O)c3cccc(NCCOCCOCCOCCN4Cc5cc(NC(=O)c6cccc(C(F)(F)F)n6)c(Br)cc5C4=O)c3C2=O)C(=O)N1 (stereo not drawn) [III-4]
3,100 to 1000,CC(C)(O)c1cc2nn(CCN3CCN(CC(=O)N4CC5(CCN(c6cccc7c6C(=O)N(C6CCC(=O)NC6=O)C7=O)CC5)C4)C3=O)cc2cc1NC(=O)c1cccc(C(F)(F)F)n1 (stereo not drawn) [III-12]
4,100 to 1000,CC(C)(O)c1cc2nn(CCN3CCN(CC(=O)NC4CCN(c5cccc6c5C(=O)N(C5CCC(=O)NC5=O)C6=O)CC4)C3=O)cc2cc1NC(=O)c1cccc(C(F)(F)F)n1 (stereo not drawn) [III-13]
5,100 to 1000,CC(C)(O)c1cc2nn(CCN3CCN(CC(=O)N4CCN(c5cccc6c5C(=O)N(C5CCC(=O)NC5=O)C6=O)CC4)C3=O)cc2cc1NC(=O)c1cccc(C(F)(F)F)n1 (stereo not drawn) [III-14]
6,100 to 1000,Cc1ncsc1-c1ccc([C@H](C)NC(=O)C2C[C@@H](O)CN2C(=O)[C@@H](NC(=O)COCCNC(=O)CN2CCN(CCn3cc4cc(NC(=O)c5cccc(C(F)(F)F)n5)c(C(C)(C)O)cc4n3)C2=O)C(C)(C)C)cc1 (stereo partly drawn) [III-15]

# Same assay, conditions: Table 2; 10 μM ATP, 6 nM IRAK4 kinase
row,IC50 [nM],Structure (SMILES)
1,≥ 10000,O=C(CCCN1Cc2cc(NC(=O)c3cccc(C(F)(F)F)n3)c(Br)cc2C1=O)NCCOCCOCCNc1cccc2c1C(=O)N(C1CCC(=O)NC1=O)C2=O (stereo not drawn) [III-1]
2,1000 to 10000,O=C1CCC(N2C(=O)c3cccc(NCCOCCOCCOCCN4Cc5cc(NC(=O)c6cccc(C(F)(F)F)n6)c(Br)cc5C4=O)c3C2=O)C(=O)N1 (stereo not drawn) [III-4]
3,100 to 1000,CC(C)(O)c1cc2nn(CCN3CCN(CC(=O)N4CC5(CCN(c6cccc7c6C(=O)N(C6CCC(=O)NC6=O)C7=O)CC5)C4)C3=O)cc2cc1NC(=O)c1cccc(C(F)(F)F)n1 (stereo not drawn) [III-12]
4,100 to 1000,CC(C)(O)c1cc2nn(CCN3CCN(CC(=O)NC4CCN(c5cccc6c5C(=O)N(C5CCC(=O)NC5=O)C6=O)CC4)C3=O)cc2cc1NC(=O)c1cccc(C(F)(F)F)n1 (stereo not drawn) [III-13]
5,100 to 1000,CC(C)(O)c1cc2nn(CCN3CCN(CC(=O)N4CCN(c5cccc6c5C(=O)N(C5CCC(=O)NC5=O)C6=O)CC4)C3=O)cc2cc1NC(=O)c1cccc(C(F)(F)F)n1 (stereo not drawn) [III-14]
6,100 to 1000,Cc1ncsc1-c1ccc([C@H](C)NC(=O)C2C[C@@H](O)CN2C(=O)[C@@H](NC(=O)COCCNC(=O)CN2CCN(CCn3cc4cc(NC(=O)c5cccc(C(F)(F)F)n5)c(C(C)(C)O)cc4n3)C2=O)C(C)(C)C)cc1 (stereo partly drawn) [III-15]
7,100 to 1000,COc1cc2c(cc1NC(=O)c1cccc(C(F)(F)F)n1)CN(CCC(C)(C)C(=O)N1CCC3(CC1)CCN(c1ncc(C(=O)N[C@H](C(=O)N4C[C@H](O)C[C@H]4C(=O)N[C@@H](C)c4ccc(-c5scnc5C)cc4)C(C)(C)C)cn1)CC3)C2=O [III-32]
8,100 to 1000,COc1cc2c(cc1NC(=O)c1cccc(C(F)(F)F)n1)CN(CCC(C)(C)C(=O)N1CCC3(CC1)CCN(c1ncc(Nc4cccc5c4C(=O)N(C4CCC(=O)NC4=O)C5=O)cn1)CC3)C2=O (stereo not drawn) [III-33]
9,< 100,COc1cc2nn(CCN3CCN(CC(=O)N4CCC5(CC4)CCN(c4cccc6c4C(=O)N(C4CCC(=O)NC4=O)C6=O)CC5)CC3)cc2cc1NC(=O)c1cccc(C(F)(F)F)n1 (stereo not drawn) [III-38]
10,< 100,COc1cc2nn(CCN3CCN(C4CCC5(CC4)CCN(c4cccc6c4C(=O)N(C4CCC(=O)NC4=O)C6=O)CC5)CC3)cc2cc1NC(=O)c1cccc(C(F)(F)F)n1 (stereo not drawn) [III-40]
11,100 to 1000,COc1cc2c(cc1NC(=O)c1cccc(C(F)(F)F)n1)CN(CCN1CCN(CC(=O)N3CCC4(CCC(C(=O)NC(C(=O)N5CC(O)CC5C(=O)NC(C)c5ccc(-c6scnc6C)cc5)C(C)(C)C)CC4)CC3)CC1)C2=O (stereo not drawn) [III-43]
12,100 to 1000,COc1cc2c(cc1NC(=O)c1cccc(C(F)(F)F)n1)CN(CCN1CCN(CC(=O)N3CCC4(CCC(NC(C(=O)N5CC(O)CC5C(=O)NC(C)c5ccc(-c6scnc6C)cc5)C(C)(C)C)CC4)CC3)CC1)C2=O (stereo not drawn) [III-44]
13,< 100,COc1cc2nn(CCN3CCN(CC(=O)N4CCC5(CC4)CCN(c4cccc6c4C(=O)N(C4CCC(=O)NC4=O)C6=O)CC5)[C@H](C)C3)cc2cc1NC(=O)c1cccc(C(F)(F)F)n1 (stereo partly drawn) [III-45]
14,< 100,COc1cc2nn(CCN3CCN(CC(=O)N4CCC5(CC4)CCN(c4cccc6c4C(=O)N(C4CCC(=O)NC4=O)C6=O)CC5)[C@@H](C)C3)cc2cc1NC(=O)c1cccc(C(F)(F)F)n1 (stereo partly drawn) [III-46]
15,< 100,COc1cc2nn(CCN3CCN(CC(=O)N4CCC5(CCC(C(=O)N[C@H](C(=O)N6C[C@H](O)C[C@H]6C(=O)N[C@@H](C)c6ccc(-c7scnc7C)cc6)C(C)(C)C)CC5)CC4)[C@H](C)C3)cc2cc1NC(=O)c1cccc(C(F)(F)F)n1 [III-48]
16,< 100,CC(C)(O)c1cc2nn(CCN3CCN(CC(=O)N4CCC5(CC4)CCN(c4cccc6c4C(=O)N(C4CCC(=O)NC4=O)C6=O)CC5)CC3)cc2cc1NC(=O)c1cccc(C(F)(F)F)n1 (stereo not drawn) [III-50]
17,< 100,CC(C)Oc1cc2nn(CCN3CCN(CC(=O)N4CCC5(CC4)CCN(c4cccc6c4C(=O)N(C4CCC(=O)NC4=O)C6=O)CC5)CC3)cc2cc1NC(=O)c1cccc(C(F)(F)F)n1 (stereo not drawn) [III-51]

row,IC50 [nM],Structure (SMILES)
1,< 100,COc1cc2nn(CCN3C4CCC3CN(CC(=O)N3CCC5(CC3)CCN(c3cccc6c3C(=O)N(C3CCC(=O)NC3=O)C6=O)CC5)C4)cc2cc1NC(=O)c1cccc(C(F)(F)F)n1 (stereo not drawn) [III-53]
2,< 100,COc1cc2nn(CCN3CCN(CC(=O)N4CCC5(CC4)CCN(c4cc6c(cc4F)C(=O)N(C4CCC(=O)NC4=O)C6=O)CC5)CC3)cc2cc1NC(=O)c1cccc(C(F)(F)F)n1 (stereo not drawn) [III-55]
3,< 100,Cc1ncsc1-c1ccc([C@H](C)NC(=O)[C@@H]2C[C@@H](O)CN2C(=O)[C@@H](NC(=O)C2CCC3(CC2)CCN(C(=O)CN2CCN(CCn4cc5cc(NC(=O)c6cccc(C(F)(F)F)n6)c(OC(C)C)cc5n4)CC2)CC3)C(C)(C)C)cc1 [III-57]
4,100 to 1000,COc1cc2c(cc1NC(=O)c1cccc(C(F)(F)F)n1)CN(CCN1CCN(CC(=O)N3CCC4(CC3)CCN(c3cccc5c3C(=O)N(C3CCC(=O)NC3=O)C5=O)CC4)CC1)C2=O (stereo not drawn) [III-58]
5,100 to 1000,COc1cc2c(cc1NC(=O)c1cccc(C(F)(F)F)n1)CN(CCC(C)(C)C(=O)N1CCC3(CC1)CN(c1cccc4c1C(=O)N(C1CCC(=O)NC1=O)C4=O)C3)C2=O (stereo not drawn) [III-59]
6,< 100,CC(C)Oc1cc2nn(CCN3CCN(CC(=O)N4CC5(C4)CN(c4cccc6c4C(=O)N(C4CCC(=O)NC4=O)C6=O)C5)CC3)cc2cc1NC(=O)c1cccc(C(F)(F)F)n1 (stereo not drawn) [III-60]
7,< 100,COc1cc2nn(CCN3CCN(CC(=O)N4CC5(C4)CN(c4cccc6c4C(=O)N(C4CCC(=O)NC4=O)C6=O)C5)CC3)cc2cc1NC(=O)c1cccc(C(F)(F)F)n1 (stereo not drawn) [III-61]
8,< 100,COc1cc2nn(CCN3CCN(CC(=O)N4CCC5(CC4)CN(c4cccc6c4C(=O)N(C4CCC(=O)NC4=O)C6=O)C5)CC3)cc2cc1NC(=O)c1cccc(C(F)(F)F)n1 (stereo not drawn) [III-62]
9,100 to 1000,COc1cc2c(cc1NC(=O)c1cccc(C(F)(F)F)n1)CN(CCC(C)(C)C(=O)N1CC3(C1)CN(c1cccc4c1C(=O)N(C1CCC(=O)NC1=O)C4=O)C3)C2=O (stereo not drawn) [III-64]
10,< 100,COc1cc2nn(CCC3CCN(CC(=O)N4CCC5(CC4)CCN(c4cccc6c4C(=O)N(C4CCC(=O)NC4=O)C6=O)CC5)CC3)cc2cc1NC(=O)c1cccc(C(F)(F)F)n1 (stereo not drawn) [III-66]
11,< 100,COc1cc2nn(CC#CC3CCN(CC(=O)N4CCC5(CC4)CCN(c4cccc6c4C(=O)N(C4CCC(=O)NC4=O)C6=O)CC5)CC3)cc2cc1NC(=O)c1cccc(C(F)(F)F)n1 (stereo not drawn) [III-67]
12,< 100,COc1cc2nn(CCC3CCN(CC(=O)N4CCC5(CCC(C(=O)N[C@H](C(=O)N6C[C@H](O)C[C@H]6C(=O)N[C@@H](C)c6ccc(-c7scnc7C)cc6)C(C)(C)C)CC5)CC4)CC3)cc2cc1NC(=O)c1cccc(C(F)(F)F)n1 [III-68]
13,< 100,COc1cc2nn(CCC3CCN(CC(=O)N4CC5(CC(CC(=O)N[C@H](C(=O)N6C[C@H](O)C[C@H]6C(=O)N[C@@H](C)c6ccc(-c7scnc7C)cc6)C(C)(C)C)C5)C4)CC3)cc2cc1NC(=O)c1cccc(C(F)(F)F)n1 [III-70]
14,< 100,COc1cc2nn(CCN3CCC(CC(=O)N4CCC5(CC4)CCN(c4cccc6c4C(=O)N(C4CCC(=O)NC4=O)C6=O)CC5)CC3)cc2cc1NC(=O)c1cccc(C(F)(F)F)n1 (stereo not drawn) [III-71]
15,< 100,COc1cc2nn(CCN3CCC(CC(=O)N4CC5(C4)CN(c4cccc6c4C(=O)N(C4CCC(=O)NC4=O)C6=O)C5)CC3)cc2cc1NC(=O)c1cccc(C(F)(F)F)n1 (stereo not drawn) [III-72]
16,100 to 1000,O=C1CCC(N2C(=O)c3cccc(N4CCC5(CCN(C(=O)CN6CCN(CCn7cc8cc(NC(=O)c9cccc(C(F)(F)F)n9)c(OC(F)(F)F)cc8n7)CC6)CC5)CC4)c3C2=O)C(=O)N1 (stereo not drawn) [III-73]
